For data set [1] the following is noted: low solubility, low permeability; cited from earlier work.
Data set [2] in a line: Differential scanning calorimetry (DSC), glass transition temperature. The data set is classed as physicochemical. The conditions noted are these: neat substance (not a solid solution). As to the method:
DSC curves were measured with a Pyris 1 (Perkin Elmer) device. The sample charge was 3-4 mg, heating rate 10 °C/min. Nitrogen was used as a carrier gas (20 ml/min).
The products were characterized by XRPD and DSC analysis.
In all cases the Tg values were higher for solid solution of 1:2 ratio than those for 1:1 ratio. Therefore, the 1:2 API to polymer ratio was able to form more physically stable solid solutions. It is known that the physical stability of the solid solution is increased with a higher glass transition temperature (Hancock and Zografi, 1997).
(In general: Differential scanning calorimetry records heat flow against a reference as temperature is scanned.)

In the case of `CCCSc1nc(N[C@@H]2C[C@H]2c2ccc(F)c(F)c2)c2nnn([C@@H]3C[C@H](OCCO)[C@@H](O)[C@H]3O)c2n1` [ticagrelor, (1S,2S,3R,5S)-3-[7-[(1R,2S)-2-(3,4-Difluorophenyl)cyclopropylamino]-5-(propylthio)-3H-[1,2,3]triazolo[4,5-d]pyrimidin-3-yl]-5-(2-hydroxyethoxy)cyclopentane-1,2-diol], the “Biopharmaceutical Classification System (BCS) class” value in data set [1] is “class IV”.

As to `CCCSc1nc(N[C@@H]2C[C@H]2c2ccc(F)c(F)c2)c2nnn([C@@H]3C[C@H](OCCO)[C@@H](O)[C@H]3O)c2n1` [Amorphous ticagrelor, (1S,2S,3R,5S)-3-[7-[(1R,2S)-2-(3,4-Difluorophenyl)cyclopropylamino]-5-(propylthio)-3H-[1,2,3]triazolo[4,5-d]pyrimidin-3-yl]-5-(2-hydroxyethoxy)cyclopentane-1,2-diol], the “glass transition temperature (Tg)” value in data set [2] was “about 46 °C”.

The record behind these values is patent EP2813216A1, “Stabilized amorphous ticagrelor” (Zentiva, a.s., priority 2013, dated 2014).
